For one experiment, the target named is T1, ovine COX-2 (Ovis aries, UniProt P79208).
T1 sequence (P79208 17-603): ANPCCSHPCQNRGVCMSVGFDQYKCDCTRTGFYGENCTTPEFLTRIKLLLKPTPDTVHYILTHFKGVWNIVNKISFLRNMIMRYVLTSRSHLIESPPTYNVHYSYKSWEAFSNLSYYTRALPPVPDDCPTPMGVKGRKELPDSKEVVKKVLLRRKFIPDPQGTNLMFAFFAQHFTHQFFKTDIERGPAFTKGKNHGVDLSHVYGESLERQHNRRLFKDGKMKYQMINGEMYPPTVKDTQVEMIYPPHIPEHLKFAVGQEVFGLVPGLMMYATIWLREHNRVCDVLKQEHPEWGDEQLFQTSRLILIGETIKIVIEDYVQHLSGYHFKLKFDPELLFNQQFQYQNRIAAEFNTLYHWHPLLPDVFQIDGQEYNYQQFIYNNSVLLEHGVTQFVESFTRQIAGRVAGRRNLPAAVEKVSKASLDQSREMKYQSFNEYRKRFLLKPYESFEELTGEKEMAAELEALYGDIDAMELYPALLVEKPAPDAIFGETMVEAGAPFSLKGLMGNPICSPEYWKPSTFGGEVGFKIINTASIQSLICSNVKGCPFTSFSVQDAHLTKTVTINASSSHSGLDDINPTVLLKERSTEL
Briefly: biochemical. Type of experiment: biochemical. The method, then:
(§1) The ovine COX-1 and COX-2 activities and the measurement of the prostaglandin products synthesized were performed using the COX Inhibitor Screening Assay (Cayman Chemical, Ann Arbor, Mich., which also contained the Prostaglandin Screening EIA Kit, used for prostaglandin quantification). The test compounds were dissolved at 50 times the highest final reaction concentration in DMSO or any other suitable solvent as stock solutions. These stock solutions were then diluted in the same solvent. Eight glass test tubes (13×100 mm) were placed in a 37° C. water bath. To each test tube was added 950 μL of reaction buffer (0.1 M Tris-HCl, pH 8.0, containing 5 mM EDTA, and 2 mM phenol), 10 μL of 100 µM heme solution, and 10 μL (5 units) of either ovine COX-1 or COX-2 and the resulting mixture was incubated with the enzyme for 2 minutes. Twenty μL of the solvent was added to one tube (100% initial activity or solvent control) and 20 μL of each dilution of the test compound was added to one tube each. Each tube was vortexed immediately after the addition. The enzyme was incubated with the inhibitor for 3.5 minutes at 37° C. The enzymatic reaction was then initiated by the addition of 10 μL of freshly prepared 10 mM arachidonic acid (neutralized with KOH), vortexed and then incubated for 2 minutes at 37° C. The reaction was terminated by the addition of 50 μL of 1 M HCl, vortexed and placed at room temperature. One hundred microliters of a saturated stannous chloride solution (50 mg/mL of 0.1 M HCl) was added and the reaction mixture was allowed to stand at room temperature for at least 5 minutes.
(§2) The prostaglandins (PG) produced in the reactions were assayed, after a 2,000-fold dilution, using the Prostaglandin Screening EIA Kit (Cayman Chemical, Ann Arbor, Mich.). The assay-contains an antibody with broad specificity for all the prostaglandin families (PGF, PGE, PGD, and thromboxane B-type) synthesized in the COX-1/COX 2 reactions. The synthesized prostaglandin competes with a PG-tagged acetylcholine esterase tracer for binding to the PG antibody. Binding of synthesized PG lowers the calorimetric development of the Ellman's Reagent (computed as % B/B0). The actual amount of synthesized PG was interpolated from a standard curve using known amounts of supplied prostaglandin E2 (PGE2) (PGE2 concentration vs. % B/B0). The data generated were the mean±standard deviation of triplicate wells in the EIA for a single reaction at a given inhibitor concentration.

Experiment [1] relates to carrageenan-induced rat paw edema. As to the kind of experiment: Carrageenan-induced rat paw edema test. Type of experiment: in vivo. As to conditions: rats dosed intragastrically, paw volume 3 hours after carrageenan. The method, then:
The carrageenan-induced rat paw edema test was used to measure antiinflammatory activity. The paw edema test was performed according to the method of Winter et al, Proc. Soc. Exp. Biol. Med. 111: 544–547, 1962. Male Sprague-Dawley rats (200–250 g) were fasted for 24 hours with water ad libitum. The rats were dosed intragastrically with test compounds in a volume of 5 mL/kg. One hour after dosing the paw volume was measured. Then each rat received a subplantar injection of 50 μl of 1% suspension of carrageenan. Three hours later, the paw volume was measured and compared with the initial volume measured […]. The increase in paw volume is presented as the mean±SEM for 5 rats per group. Data were analyzed by performing an ANOVA test followed by a Student-Keuls post hoc test.

A further experiment concerns the target T2, ovine COX-1 (Ovis aries, UniProt P05979).
T2 sequence (P05979 25-600): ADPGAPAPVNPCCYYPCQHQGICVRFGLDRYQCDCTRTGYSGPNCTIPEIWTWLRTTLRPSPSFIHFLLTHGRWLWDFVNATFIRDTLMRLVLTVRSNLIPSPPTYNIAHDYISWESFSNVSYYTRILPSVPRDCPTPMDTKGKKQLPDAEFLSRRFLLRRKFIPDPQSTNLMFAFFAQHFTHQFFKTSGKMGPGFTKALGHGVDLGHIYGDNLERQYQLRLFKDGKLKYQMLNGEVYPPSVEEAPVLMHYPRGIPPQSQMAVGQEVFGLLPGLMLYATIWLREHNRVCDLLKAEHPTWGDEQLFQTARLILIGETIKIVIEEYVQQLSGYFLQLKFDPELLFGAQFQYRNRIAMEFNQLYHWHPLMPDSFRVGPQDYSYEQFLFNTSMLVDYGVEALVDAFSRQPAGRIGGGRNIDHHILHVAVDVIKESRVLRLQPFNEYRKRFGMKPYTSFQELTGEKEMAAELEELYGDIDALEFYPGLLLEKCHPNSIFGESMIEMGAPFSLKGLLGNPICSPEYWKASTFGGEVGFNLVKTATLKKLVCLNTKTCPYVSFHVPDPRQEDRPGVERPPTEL
Briefly: biochemical. The method, then: as §1, §2

For `NS(=O)(=O)c1ccc(-c2c(-c3ccccc3)noc2CO[N+](=O)[O-])cc1` [Example 2b, 4-(5-((Nitrooxy)methyl)-3-phenylisoxazol-4-yl)benzenesulfonamide], the results for the IC50 against ovine COX-2 and on ovine COX-1 (ovine COX-1) were 1200 nM and more than 300000 nM, respectively. Moreover, the “paw volume (antiinflammatory activity)” value in experiment [1] is recorded as “reduced the paw volume”. At ovine COX-1 (Ovine COX-1 (footnote a), at 100 μM), this compound yielded an inhibition at 100 µM of 0%.

Values taken from patent publication US7166618B2, “Nitrosated and nitrosylated cyclooxygenase-2 inhibitors, compositions and methods of use” (NitroMed, Inc., priority 1999, dated 2007).
